Results from patent publication US20070037785A1, “Novel dipeptidyl peptidase IV inhibitors used for functionally influencing different cells and treating immunological, infammatory, neuronal, and other diseases” (priority 2003, published 2007).

What follows are compounds tested against dipeptidyl peptidase IV (Homo sapiens, UniProt P27487) (assay: biochemical). Settings: values without "*" = IC-50; read-out: IC50DPIV.
dipeptidyl peptidase IV, sequence (P27487 whole entry, species assumed): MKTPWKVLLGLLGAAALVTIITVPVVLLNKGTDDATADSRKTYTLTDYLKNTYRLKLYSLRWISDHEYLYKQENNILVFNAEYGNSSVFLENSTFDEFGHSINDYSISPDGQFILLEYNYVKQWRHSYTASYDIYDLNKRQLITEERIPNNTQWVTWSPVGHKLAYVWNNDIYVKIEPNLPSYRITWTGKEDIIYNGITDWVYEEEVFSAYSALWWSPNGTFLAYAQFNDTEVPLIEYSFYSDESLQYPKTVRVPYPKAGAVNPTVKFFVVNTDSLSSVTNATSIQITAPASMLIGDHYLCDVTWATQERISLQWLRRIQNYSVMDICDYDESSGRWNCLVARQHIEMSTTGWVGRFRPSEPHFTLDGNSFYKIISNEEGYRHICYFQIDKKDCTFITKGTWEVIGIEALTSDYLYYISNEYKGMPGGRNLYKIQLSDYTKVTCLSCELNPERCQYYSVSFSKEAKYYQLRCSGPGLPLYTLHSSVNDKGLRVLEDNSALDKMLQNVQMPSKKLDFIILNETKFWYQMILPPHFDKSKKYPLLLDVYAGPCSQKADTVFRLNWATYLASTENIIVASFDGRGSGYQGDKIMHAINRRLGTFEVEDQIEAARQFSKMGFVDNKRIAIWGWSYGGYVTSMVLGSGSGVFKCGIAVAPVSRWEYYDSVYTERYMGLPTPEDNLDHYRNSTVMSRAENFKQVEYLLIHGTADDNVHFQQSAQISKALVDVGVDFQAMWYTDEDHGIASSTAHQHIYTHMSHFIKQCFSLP
Work on O=C(Nc1cccc(/N=C/c2cc(I)cc(I)c2O)c1)c1ccco1 [D6.010] yielded an IC50 of 9.2 µM. Compound Cc1cccc(-n2c(=O)c3c4c(sc3n3c(CC(C)C(=O)N5CCOCC5)nnc23)COC(C(C)C)C4)c1 (stereo not shown) [D6.012] has an IC50 of 10.1 µM. With Nc1nonc1-n1nnc(C(=O)NN=C2c3ccccc3-c3ccccc32)c1-c1ccccc1 [D6.013] the IC50 was 10.1 µM. In the case of CCOC(=O)CC(N)c1cccs1 (stereo not shown) [D6.018], the IC50 is reported as 15.2 µM. With CCCn1c(N2CCN(CC(=O)c3c(C)n(C)c4ccccc34)CC2)nc2c1c(=O)[nH]c(=O)n2C [D6.019] the IC50 was 15.2 µM. With CC(C)(C)S(=O)(=O)C1=CN2C3=C(CCCC3)NC2C=C1 (stereo not shown) [D6.020] the IC50 was 15.6 µM. Compound O=C(NCc1ccco1)C(=O)Nc1ccc(Br)cc1 [D6.021] has an IC50 of 16.1 µM. Work on CCOC(=O)n1ccc(C(=O)Nc2ccccc2F)n1 [D6.026] yielded an IC50 of 17.9 µM. Work on CC1CCN(C(=O)/C(=C\c2ccco2)NC(=O)c2ccc(Cl)cc2)CC1 [D6.027] yielded an IC50 of 18.5 µM. CCn1c(N2CCN(c3ccc(OC)cc3)CC2)nc2c1c(=O)[nH]c(=O)n2C [D6.028] was tested, and the IC50 was 19.2 µM. O=C(/C=C/c1ccco1)c1ccccc1 [D6.029] gave an IC50 of 19.7 µM. For CCSc1nnc2n(-c3ccc(OC)cc3)c(=O)c3c4c(sc3n12)CCCC4 [D6.031], the IC50 was 20.2 µM. Cc1cc([N+](=O)[O-])c(C)cc1-c1ccc(/C=C/c2cc(C(F)(F)F)nc(=O)[nH]2)o1 [D6.034] showed an IC50 of 20.6 µM. For Cc1ccccc1C(=O)N/N=C/c1ccc([N+](=O)[O-])o1 [D6.036], the IC50 was 20.9 µM. Compound CC(C)C1Cc2c(sc3c2c(=O)n(Cc2ccccc2)c2nnc(SCC(=O)O)n32)CO1 (stereo not shown) [D6.037] has an IC50 of 18.9 µM. CNc1nc2c(c(=O)[nH]c(=O)n2C)n1Cc1ccccc1Cl [D6.043] gave an IC50 of 27.8 µM. Cc1cc2ccccc2n1CCNC(=O)c1cccs1 [D6.044] gave an IC50 of 28.8 µM. In the case of CCCn1c(N2CCN(CC(=O)c3c[nH]c4ccccc34)CC2)nc2c1c(=O)[nH]c(=O)n2C [D6.046], the IC50 is reported as 30.8 µM. N#Cc1c(CC(=O)C(C(F)(F)F)C(F)(F)F)sc2c1CCC2 [D6.047] gave an IC50 of 30.9 µM. Compound CCCC(=O)Cc1ccc(N(C(=O)CCC)S(=O)(=O)c2cccs2)cc1 [D6.048] has an IC50 of 31.3 µM. Compound CN(/N=C/c1sc(=O)[nH]c1Cl)c1ccccc1 [D6.049] has an IC50 of 32.4 µM. In the case of Cc1ccc(C(=O)C2(C)N(O)C(C)C(c3cccs3)=[N+]2[O-])cc1 (stereo not shown) [D6.053], the IC50 is reported as 34.1 µM. Compound CCOC(=O)c1c(C)oc2c1c1c(c3ccccc32)OCN(C2CCS(=O)(=O)C2)C1 (stereo not shown) [D6.054] has an IC50 of 34.2 µM. CC1=C(C#N)C(=O)N(CCCO)C(=O)/C1=C\c1ccc(-c2cc(C)c(C)cc2[N+](=O)[O-])o1 [D6.055] was tested, and the IC50 was 34.8 µM. Work on CCOC(=O)c1cn(-c2ccc(N3C(=O)CSCC3=O)cc2)nc1C [D6.056] yielded an IC50 of 37.4 µM. Work on Cc1ccccc1NC(=O)CSC1=NCCN1 [D6.057] yielded an IC50 of 38.1 µM. For N#Cc1c(NC(=O)C(C(F)(F)F)C(F)(F)F)sc2c1CCCC2 [D6.058], the IC50 was 39.5 µM. CCc1c(C)[nH]c2c1/C(=N\OC(=O)C(C)C)CCC2 [D6.062] was tested, and the IC50 was 43.8 µM. With Cn1c(=O)c2c(nc(NCCO)n2Cc2ccccc2Cl)n(C)c1=O [D6.063] the IC50 was 44 µM. C=CCOC(=O)c1cc(-c2ccc(/C=C3/C(=O)N(CCCO)C(=O)C(C#N)=C3C)o2)ccc1Cl [D6.065] showed an IC50 of 44.6 µM. Compound Cc1ccc(C(=O)N/C(=C\c2ccco2)C(C)N2CCOCC2)cc1C (stereo not shown) [D6.067] has an IC50 of 46.5 µM. CC1C(=O)N(Cc2ccccc2)C(=O)c2c1nc(N1CCNCC1)n2Cc1ccccc1 (stereo not shown) [D6.069] gave an IC50 of 48.3 µM. For CCCCOC(=O)c1cc(-c2ccc(/C=C3/C(=O)N(CC(C)O)C(=O)C(C#N)=C3C)o2)ccc1Cl (stereo not shown) [D6.070], the IC50 was 49 µM. Compound CC1=C(C#N)C(=O)N(CCO)C(=O)/C1=C\c1ccc(-c2cc(Cl)ccc2Cl)o1 [D6.071] has an IC50 of 51.7 µM. In the case of Cc1ccc(Cn2cccc2/C=N/NC(=S)Nc2ccc(C)c(C)c2)cc1 [D6.078], the IC50 is reported as 55.2 µM. In the case of CCCc1cccc(/C=N/NC(=O)c2cc(-c3ccc(F)cc3)n[nH]2)c1O [D6.079], the IC50 is reported as 55.3 µM. With CCOc1ccc(/C=N/NC(=O)c2cc(-c3c(OC)ccc4ccccc34)n[nH]2)cc1 [D6.081] the IC50 was 56.3 µM. CCOC(=O)c1cc(-c2ccc(/C=C3/C(=O)NC(=O)C(C#N)=C3C)o2)ccc1Cl [D6.082] was tested, and the IC50 was 56.7 µM. CC1CCc2c(sc(NC(=O)C(C(F)(F)F)C(F)(F)F)c2C#N)C1 (stereo not shown) [D6.083] showed an IC50 of 59.8 µM. Cc1ccc(/C=N/NC(=O)c2cccc(I)c2)o1 [D6.084] showed an IC50 of 57.4 µM. In the case of CCC(N)C(=O)c1cccs1 (stereo not shown) [D6.085], the IC50 is reported as 61.4 µM. Compound CCOC(=O)c1ccc(-c2ccc(/C=C3\C(=O)N(CCO)C(=O)C(C#N)=C3C)o2)cc1 [D6.087] has an IC50 of 65.9 µM. For CC1=C(C#N)C(=O)N(CC(C)O)C(=O)/C1=C/c1ccc(-c2ccc(Br)cc2)o1 (stereo not shown) [D6.089], the IC50 was 73.8 µM. Cc1ccc(C(=O)N/C(=C/c2ccco2)C(=O)N(C)C)cc1 [D6.091] was tested, and the IC50 was 47.7 µM. Work on CCCOC(=O)c1cc(-c2ccc(/C=C3\C(=O)N(CCCO)C(=O)C(C#N)=C3C)o2)ccc1Cl [D6.092] yielded an IC50 of 76.3 µM. CCCOC(=O)c1cc(-c2ccc(/C=C3/C(=O)N(CC(C)O)C(=O)C(C#N)=C3C)o2)ccc1Cl (stereo not shown) [D6.095] was tested, and the IC50 was 82.2 µM.
